Molecules are shown by their SMILES.

Among the targets are STK16 (Homo sapiens, UniProt O75716); IRAK4 (Homo sapiens, UniProt Q9NWZ3); PIK3CA(C420R) (Homo sapiens, UniProt P42336, C420R); PLK2 (Homo sapiens, UniProt Q9NYY3); ZAP70 (Homo sapiens, UniProt P43403); LATS1 (Homo sapiens, UniProt O95835); CAMK2G (Homo sapiens, UniProt Q13555); AKT3 (Homo sapiens, UniProt Q9Y243); PRKD3 (Homo sapiens, UniProt O94806); PIM2 (Homo sapiens, UniProt Q9P1W9); CAMK2D (Homo sapiens, UniProt Q13557); FLT3(ITD,F691L) (Homo sapiens, UniProt P36888, F691L/ITD); MAST1 (Homo sapiens, UniProt Q9Y2H9); FRK (Homo sapiens, UniProt P42685); MAP3K3 (Homo sapiens, UniProt Q99759); ACVR1 (Homo sapiens, UniProt Q04771); PIK3CA(I800L) (Homo sapiens, UniProt P42336, I800L); EGFR(L861Q) (Homo sapiens, UniProt P00533, L861Q).

Common to all, as to experiment: biochemical
Set-up in all cases: KINOMEscan active-site-directed competition binding panel, 468 kinases, percent of DMSO control at 1 uM
Conditions in all cases: KINOMEscan binding, percent of DMSO control; read-out: Ctrl%

The target of a further test is T1, CDK4-cyclinD1 (Homo sapiens, UniProt P11802).
T1 construct: cyclinD1

A further test has as its target T2, ERK2 (Homo sapiens, UniProt P28482).
T2 construct: gene MAPK1

The target of a further test is T3, IKK-alpha (Homo sapiens, UniProt O15111).
T3 construct: gene CHUK

The target in a further test is T4, QSK (Homo sapiens, UniProt Q9Y2K2).
T4 construct: gene SIK3

The target in another test is T5, MEK2 (Homo sapiens, UniProt P36507).
T5 construct: gene MAP2K2

A further test concerns the target T6, PCTK1 (Homo sapiens, UniProt Q00536).
T6 construct: gene CDK16

Sequence of CAMK2D (Q13557 whole entry): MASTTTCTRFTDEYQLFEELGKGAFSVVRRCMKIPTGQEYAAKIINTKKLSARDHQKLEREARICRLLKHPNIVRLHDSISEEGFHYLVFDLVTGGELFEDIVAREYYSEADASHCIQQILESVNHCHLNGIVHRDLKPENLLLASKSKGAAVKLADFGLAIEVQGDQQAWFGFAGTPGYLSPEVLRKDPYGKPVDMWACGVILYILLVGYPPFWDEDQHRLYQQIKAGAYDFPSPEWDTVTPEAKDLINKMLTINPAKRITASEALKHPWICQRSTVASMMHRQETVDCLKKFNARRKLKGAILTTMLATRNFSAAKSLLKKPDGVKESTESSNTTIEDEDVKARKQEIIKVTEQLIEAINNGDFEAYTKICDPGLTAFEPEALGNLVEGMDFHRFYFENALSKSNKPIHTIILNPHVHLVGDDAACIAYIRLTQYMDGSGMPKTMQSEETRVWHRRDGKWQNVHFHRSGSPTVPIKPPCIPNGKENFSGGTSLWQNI
Sequence of PLK2 (Q9NYY3 whole entry): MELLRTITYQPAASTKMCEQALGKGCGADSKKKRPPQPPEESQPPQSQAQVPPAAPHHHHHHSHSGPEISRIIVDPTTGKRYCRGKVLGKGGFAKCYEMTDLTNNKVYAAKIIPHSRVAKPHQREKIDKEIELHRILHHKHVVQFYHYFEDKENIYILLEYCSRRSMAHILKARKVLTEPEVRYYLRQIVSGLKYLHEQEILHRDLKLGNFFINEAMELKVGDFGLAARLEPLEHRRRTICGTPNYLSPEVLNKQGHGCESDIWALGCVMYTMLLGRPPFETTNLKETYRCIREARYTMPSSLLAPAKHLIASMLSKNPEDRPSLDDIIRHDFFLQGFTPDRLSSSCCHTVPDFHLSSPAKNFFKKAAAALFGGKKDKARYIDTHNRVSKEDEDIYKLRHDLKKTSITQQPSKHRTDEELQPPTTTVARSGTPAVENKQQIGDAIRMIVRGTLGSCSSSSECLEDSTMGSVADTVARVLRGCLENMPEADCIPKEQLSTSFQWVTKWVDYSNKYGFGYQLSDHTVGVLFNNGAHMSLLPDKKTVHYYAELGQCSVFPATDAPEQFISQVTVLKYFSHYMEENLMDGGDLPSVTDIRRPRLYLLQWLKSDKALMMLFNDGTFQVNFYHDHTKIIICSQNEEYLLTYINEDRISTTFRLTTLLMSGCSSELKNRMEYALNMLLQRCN
Sequence of LATS1 (O95835 whole entry): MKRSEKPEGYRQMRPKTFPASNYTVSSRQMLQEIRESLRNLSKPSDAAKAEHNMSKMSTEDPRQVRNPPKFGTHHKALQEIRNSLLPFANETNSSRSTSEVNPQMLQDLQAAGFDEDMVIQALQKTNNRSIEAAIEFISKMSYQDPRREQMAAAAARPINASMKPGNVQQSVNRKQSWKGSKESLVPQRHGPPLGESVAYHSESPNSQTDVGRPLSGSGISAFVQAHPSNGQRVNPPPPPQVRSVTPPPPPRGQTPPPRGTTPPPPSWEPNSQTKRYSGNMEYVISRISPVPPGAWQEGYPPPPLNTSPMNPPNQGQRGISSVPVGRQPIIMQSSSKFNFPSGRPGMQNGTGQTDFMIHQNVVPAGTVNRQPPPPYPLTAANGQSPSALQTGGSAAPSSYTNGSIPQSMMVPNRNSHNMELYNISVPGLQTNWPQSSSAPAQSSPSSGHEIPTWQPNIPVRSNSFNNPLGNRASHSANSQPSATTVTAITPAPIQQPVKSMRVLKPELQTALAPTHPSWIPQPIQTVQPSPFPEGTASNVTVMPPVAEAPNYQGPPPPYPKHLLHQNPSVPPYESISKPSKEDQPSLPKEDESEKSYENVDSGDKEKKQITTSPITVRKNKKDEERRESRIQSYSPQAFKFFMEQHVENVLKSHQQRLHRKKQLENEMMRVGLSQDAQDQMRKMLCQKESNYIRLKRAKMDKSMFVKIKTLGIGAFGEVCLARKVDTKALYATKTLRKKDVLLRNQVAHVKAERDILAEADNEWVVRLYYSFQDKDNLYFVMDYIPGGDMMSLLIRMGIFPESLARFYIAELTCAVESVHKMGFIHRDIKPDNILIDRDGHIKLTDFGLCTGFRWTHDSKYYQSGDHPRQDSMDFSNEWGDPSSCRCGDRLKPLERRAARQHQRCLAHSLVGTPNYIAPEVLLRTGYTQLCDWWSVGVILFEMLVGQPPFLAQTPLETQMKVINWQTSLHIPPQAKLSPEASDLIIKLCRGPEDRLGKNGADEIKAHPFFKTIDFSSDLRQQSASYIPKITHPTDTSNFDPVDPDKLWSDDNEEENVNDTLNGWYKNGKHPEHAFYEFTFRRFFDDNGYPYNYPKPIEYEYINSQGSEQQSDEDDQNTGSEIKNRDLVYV
Sequence of MAST1 (Q9Y2H9 whole entry): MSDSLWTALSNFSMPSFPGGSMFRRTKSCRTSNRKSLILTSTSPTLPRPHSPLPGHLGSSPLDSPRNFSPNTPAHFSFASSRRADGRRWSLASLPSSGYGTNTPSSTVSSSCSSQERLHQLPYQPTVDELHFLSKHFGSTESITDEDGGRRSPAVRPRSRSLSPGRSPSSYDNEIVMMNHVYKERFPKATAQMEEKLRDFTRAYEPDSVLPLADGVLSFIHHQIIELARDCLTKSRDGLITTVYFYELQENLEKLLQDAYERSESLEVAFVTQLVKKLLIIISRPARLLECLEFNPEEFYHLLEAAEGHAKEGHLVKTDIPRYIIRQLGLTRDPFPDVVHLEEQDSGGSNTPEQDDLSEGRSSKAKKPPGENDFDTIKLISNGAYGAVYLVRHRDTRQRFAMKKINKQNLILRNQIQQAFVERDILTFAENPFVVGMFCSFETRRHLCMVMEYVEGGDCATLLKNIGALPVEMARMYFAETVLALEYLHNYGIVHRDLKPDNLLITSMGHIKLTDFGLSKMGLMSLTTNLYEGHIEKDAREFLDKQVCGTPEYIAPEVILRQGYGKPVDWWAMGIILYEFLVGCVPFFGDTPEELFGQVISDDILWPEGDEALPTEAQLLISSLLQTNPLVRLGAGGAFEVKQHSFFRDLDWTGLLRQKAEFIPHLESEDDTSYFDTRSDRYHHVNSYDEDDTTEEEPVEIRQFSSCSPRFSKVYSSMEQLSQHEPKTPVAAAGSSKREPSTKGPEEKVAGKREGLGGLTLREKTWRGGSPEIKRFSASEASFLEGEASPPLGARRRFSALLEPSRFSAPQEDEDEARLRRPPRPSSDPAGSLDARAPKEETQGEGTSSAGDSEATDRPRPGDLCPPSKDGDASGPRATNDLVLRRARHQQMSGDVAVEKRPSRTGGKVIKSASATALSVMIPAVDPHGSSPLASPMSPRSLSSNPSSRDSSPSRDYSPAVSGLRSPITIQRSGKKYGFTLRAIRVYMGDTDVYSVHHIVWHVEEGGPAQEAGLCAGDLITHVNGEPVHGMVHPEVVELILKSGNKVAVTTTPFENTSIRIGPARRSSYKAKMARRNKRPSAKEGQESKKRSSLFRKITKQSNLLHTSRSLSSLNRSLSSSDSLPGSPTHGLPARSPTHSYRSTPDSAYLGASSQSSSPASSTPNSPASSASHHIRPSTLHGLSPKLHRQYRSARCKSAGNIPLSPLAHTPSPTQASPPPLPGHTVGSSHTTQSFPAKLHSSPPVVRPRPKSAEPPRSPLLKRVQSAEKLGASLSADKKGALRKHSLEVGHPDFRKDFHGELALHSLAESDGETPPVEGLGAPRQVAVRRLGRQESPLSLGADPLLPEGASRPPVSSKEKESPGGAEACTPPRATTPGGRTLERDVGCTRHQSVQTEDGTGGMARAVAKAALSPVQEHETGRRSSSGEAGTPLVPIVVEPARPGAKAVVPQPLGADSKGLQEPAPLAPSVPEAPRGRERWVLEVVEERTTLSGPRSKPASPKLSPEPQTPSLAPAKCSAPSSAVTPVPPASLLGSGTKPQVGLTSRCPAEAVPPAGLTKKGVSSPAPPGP
T2 sequence (P28482 whole entry): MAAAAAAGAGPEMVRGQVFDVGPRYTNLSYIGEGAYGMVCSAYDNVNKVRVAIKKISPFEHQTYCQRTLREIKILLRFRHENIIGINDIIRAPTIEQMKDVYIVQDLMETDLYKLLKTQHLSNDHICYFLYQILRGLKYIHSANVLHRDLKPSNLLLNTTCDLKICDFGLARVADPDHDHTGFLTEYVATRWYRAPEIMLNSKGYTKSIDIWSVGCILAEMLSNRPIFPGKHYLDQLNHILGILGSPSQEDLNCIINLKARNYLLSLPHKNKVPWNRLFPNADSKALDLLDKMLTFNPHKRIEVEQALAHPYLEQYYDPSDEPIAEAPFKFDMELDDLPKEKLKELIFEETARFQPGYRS
Sequence of PIM2 (Q9P1W9 whole entry): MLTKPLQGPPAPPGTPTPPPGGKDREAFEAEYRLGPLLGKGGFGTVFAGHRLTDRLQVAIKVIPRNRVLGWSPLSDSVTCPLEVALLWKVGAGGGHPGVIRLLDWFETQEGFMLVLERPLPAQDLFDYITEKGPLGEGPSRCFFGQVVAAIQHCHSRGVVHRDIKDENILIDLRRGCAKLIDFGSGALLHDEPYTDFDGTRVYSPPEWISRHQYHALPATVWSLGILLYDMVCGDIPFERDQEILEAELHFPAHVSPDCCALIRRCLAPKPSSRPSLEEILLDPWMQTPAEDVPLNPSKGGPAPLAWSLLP
Sequence of AKT3 (Q9Y243 whole entry): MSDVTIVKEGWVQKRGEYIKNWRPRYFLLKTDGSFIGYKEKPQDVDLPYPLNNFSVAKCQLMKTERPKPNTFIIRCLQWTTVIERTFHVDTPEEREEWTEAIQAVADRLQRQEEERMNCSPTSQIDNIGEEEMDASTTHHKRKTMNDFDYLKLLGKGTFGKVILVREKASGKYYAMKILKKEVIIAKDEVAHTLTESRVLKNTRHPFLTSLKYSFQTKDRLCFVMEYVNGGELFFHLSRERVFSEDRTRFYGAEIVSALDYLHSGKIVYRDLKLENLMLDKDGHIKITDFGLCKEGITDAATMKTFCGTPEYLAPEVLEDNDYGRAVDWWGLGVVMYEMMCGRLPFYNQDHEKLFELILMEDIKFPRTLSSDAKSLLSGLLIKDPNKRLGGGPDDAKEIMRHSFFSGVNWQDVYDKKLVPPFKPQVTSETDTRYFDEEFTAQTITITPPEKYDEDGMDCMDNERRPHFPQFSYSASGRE

With `Cc1ccc(NC(=O)c2cccc(C(F)(F)F)c2)cc1Nc1cc(-c2cccnc2)nc2[nH]ccc12` [HZX-02-059], the remaining binding at 1 µM at STK16 turned out to be 96%; at IRAK4 it was 100%; at PIK3CA(C420R), 100%; on PLK2, 99%; on ZAP70 it was 76%; at LATS1, 95%. For the same compound, the remaining binding at 1 µM at CDK4-cyclinD1 is 98%; on ERK2, 100%; on IKK-alpha it was 100%; on QSK, 66%; at CAMK2G, 97%; at AKT3, 69%. In addition, the remaining binding at 1 µM on PRKD3 was found to be 100%; on PIM2, 88%; at CAMK2D, 100%; at FLT3(ITD,F691L), 100%; at MAST1, 100%; on MEK2, 100%. Also, the remaining binding at 1 µM on FRK amounted to 4.7%; on MAP3K3, 89%; on ACVR1, 77%; on PIK3CA(I800L), 81%; on PCTK1, 100%; at EGFR(L861Q), 76%.

Source of the values: publication PMC8799717, “Pharmacological targeting PIKfyve and tubulin as an effective treatment strategy for double-hit lymphoma” (Cell Death Discovery, 2022).
